Molecules are shown by their SMILES.

The target of the assay is Protein smoothened (Homo sapiens, UniProt Q99835). Nature of the assay: Radioligand Competition Binding Assay: For the binding competition assay, 100 μL of Assay Buffer was added to all the wells of a 96 well GF/B filter plate (Millipore MultiScreen-HTS-FB cat# MSFBN6B50) for 10 minutes to pre-wet the filter prior to evacuation of the buffer (8 inches Hg for 8 seconds). To the pre-wet wells is added: 20 μL of Assay Buffer, 10 μL diluted test agent, 20 μL of a tritiated Smo antagonist (15 nM stock solution), and 50 μL of membrane preparation (40 μg total protein per well). The plates are sealed and mixed at room temperature for 5 min, incubated at room temperature for 2 hours, then washed 5 times with 100 μL/each of wash buffer and vacuum dried for 8 seconds at 8 inches Hg. The plate is then dried for one hour in a 60° C. oven prior to the addition of 45 μL of Microscint 20 (Packard, #6013621) to each well and incubation at RT for 30 minutes to 1 hour. The plate is counted in a TopCount scintillation counter (Perkin Elmer). (In general: Loss of bound radioactivity is the signal in a displacement assay; it reports binding, not function.)
Chain of Protein smoothened (Q99835 whole entry): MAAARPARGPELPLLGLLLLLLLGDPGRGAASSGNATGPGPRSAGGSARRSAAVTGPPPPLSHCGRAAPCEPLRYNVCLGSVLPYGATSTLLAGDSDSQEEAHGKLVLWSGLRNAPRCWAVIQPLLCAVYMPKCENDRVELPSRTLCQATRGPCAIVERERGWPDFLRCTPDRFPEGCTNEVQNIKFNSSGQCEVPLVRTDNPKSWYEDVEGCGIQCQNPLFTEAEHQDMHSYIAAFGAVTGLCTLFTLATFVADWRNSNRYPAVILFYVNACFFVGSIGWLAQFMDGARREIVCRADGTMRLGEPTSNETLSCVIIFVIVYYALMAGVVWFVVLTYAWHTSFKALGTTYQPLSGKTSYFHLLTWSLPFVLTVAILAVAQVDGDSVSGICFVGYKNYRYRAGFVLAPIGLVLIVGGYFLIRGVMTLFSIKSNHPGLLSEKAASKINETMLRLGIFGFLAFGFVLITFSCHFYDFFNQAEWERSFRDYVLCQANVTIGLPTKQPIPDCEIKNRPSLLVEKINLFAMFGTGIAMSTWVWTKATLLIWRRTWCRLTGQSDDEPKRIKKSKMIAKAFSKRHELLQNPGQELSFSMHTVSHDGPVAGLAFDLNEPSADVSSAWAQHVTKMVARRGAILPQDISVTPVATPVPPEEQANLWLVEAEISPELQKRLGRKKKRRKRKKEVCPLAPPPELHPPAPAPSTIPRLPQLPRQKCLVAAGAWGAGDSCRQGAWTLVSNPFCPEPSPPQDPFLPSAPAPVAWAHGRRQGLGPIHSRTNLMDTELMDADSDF
Regarding `Cc1cccnc1-c1cc(N2[C@@H]3CC[C@H]2CN(C(=O)CC(C)(C)O)C3)ncc1Cl`, the 50% inhibitory concentration (IC50) worked out at 0.0922 µM. The result for `O=C(CCO)NC1CCN(c2ccc(Cl)c(-c3ccccn3)n2)CC1` reads 0.11 µM; that for `Cc1ccc(-c2nc(N3CCN(C(=O)CCS(C)(=O)=O)CC3)ccc2Cl)nc1`, 0.0225 µM. The result for `Cc1cccnc1-c1cc(N2CCN(c3ncc(Br)cn3)CC2)ncc1Cl` reads 0.0403 µM. `Cc1cc(F)cnc1-c1cc(N2CCN(C(=O)CCS(C)(=O)=O)CC2)ncc1Cl` came in with an IC50 of 0.00711 µM. Compared with the last compound, the IC50 is about 5.7-fold lower. The result for `O=S(=O)(NC1CCN(c2ccc(Cl)c(-c3ccccn3)n2)CC1)C1CC1` reads 0.0165 µM.

As usually defined, the IC50 is the point on the concentration scale where inhibition reaches its midpoint. A higher IC50 goes with weaker potency in that assay.

For the origin of these results see ChEMBL document CHEMBL3638904, “Pyridine-2-derivatives as smoothened receptor modulators” (2015).
